Assays:
HEK293sieSTAT3(Y640F) [1] = test: drug sensitivity score (DSS), viability CellTiter-Glo (DSS (dimensionless)); higher = more growth inhibition; extreme values may be limits of the assay; settings: 72 h; STAT3 variant: Y640F (constitutively active)
Summary of the method: (§1)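 In 384-well plates with acoustically pre-plated compounds (5 concentrations, 10-fold dilutions), 20 μl of HEK293 cells at 100,000 cells/ml were added; the cells overexpressed wild-type or mutant STAT3 and carried a STAT3-dependent luciferase reporter. Incubation lasted 72 hours at 37°C and 5% CO2 before sequential CellTox Green (485/520 nm) and CellTiter-Glo reads on a PHERAstar FS. After normalisation to negative and positive control wells, Breeze was used to derive a drug sensitivity score from the dose-response curve area.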

HEK293sieSTAT3(wt) [2] = test: as above; settings: 72 h; STAT3 variant: wild type
Summary of the method: as §1

HEK293sieSTAT3(Y640F) [3] = test: drug sensitivity score (DSS), cytotoxicity CellTox Green (DSS (dimensionless)); higher = more cytotoxic; extreme values may be limits of the assay; settings: 72 h; STAT3 variant: Y640F (constitutively active)
Summary of the method: as §1

HEK293sieSTAT3(wt) [4] = test: as above; settings: 72 h; STAT3 variant: wild type
Summary of the method: as §1

SMILES	drug sensitivity score (HEK293sieSTAT3(Y640F) [1])	drug sensitivity score (HEK293sieSTAT3(wt) [2])	drug sensitivity score (HEK293sieSTAT3(Y640F) [3])	drug sensitivity score (HEK293sieSTAT3(wt) [4])
CNC(=O)c1ccc(N2C(=S)N(c3ccc(C#N)c(C(F)(F)F)c3)C(=O)C23CCC3)cc1F [RD162] (top concentration tested 10000 nM)	2.62	1.68	0	0.2
CCNC(=O)Nc1ccc(-c2nc3c(c(N4CCOC[C@@H]4C)n2)CCN(C2COC2)C3)cc1 [RG-7603] (top concentration tested 2500 nM)	6.22	8.47	0	0
Nc1cc(F)ccc1NC(=O)/C=C/c1cnn(C/C=C/c2ccccc2)c1 [RGFP966] (top concentration tested 10000 nM)	5.46	6.28	0	0
Cc1cnc(NC(=O)Nc2cc(Br)c(C)cc2OC[C@@H]2CNCCO2)cn1 [Rabusertib] (top concentration tested 1000 nM)	5.38	5.03	0.03	1.61
C[C@@H]1C[C@H]2O[C@@H]2/C=C\C=C\C(=O)Cc2c(Cl)c(O)cc(O)c2C(=O)O1 [Radicicol] (top concentration tested 10000 nM)	19.5	25.1	7.65	14.4
CC(C)(C)Cn1c(N)nc2ccc(-c3[nH]c(C(C)(C)C)nc3-c3ccc(F)cc3)nc21 [Ralimetinib] (top concentration tested 10000 nM)	0.9	0	0.02	0
O=C(c1ccc(OCCN2CCCCC2)cc1)c1c(-c2ccc(O)cc2)sc2cc(O)ccc12 [Raloxifene] (top concentration tested 10000 nM)	3.8	5.05	0	6.26
Cc1nc(=O)c2cc(CN(C)c3ccc(C(=O)N[C@@H](CCC(=O)O)C(=O)O)s3)ccc2[nH]1 [Raltitrexed] (top concentration tested 1000 nM)	20.1	15.1	0	2.49
CNC(=O)c1cc(Oc2ccc(NC(=O)Nc3cc(C(C)(C)C)nn3-c3ccc4ncccc4c3)c(F)c2)ccn1 [Rebastinib] (top concentration tested 1000 nM)	0	0	0	1.16
COc1cc(F)c(F)c(Nc2ccc(I)cc2F)c1NS(=O)(=O)C1(C[C@H](O)CO)CC1 [Refametinib] (top concentration tested 10000 nM)	2.4	1.58	0	0
CNC(=O)c1cc(Oc2ccc(NC(=O)Nc3ccc(Cl)c(C(F)(F)F)c3)c(F)c2)ccn1 [Regorafenib] (top concentration tested 10000 nM)	6.11	6.43	0	0
CN(C)Cc1ccc(S(=O)(=O)n2ccc(/C=C/C(=O)NO)c2)cc1 [Resminostat] (top concentration tested 10000 nM)	11.5	12.3	5.95	6.75
CN(C)C(=O)c1cc2cnc(Nc3ccc(N4CCNCC4)cn3)nc2n1C1CCCC1 [Ribociclib] (top concentration tested 10000 nM)	4.33	5.65	0.06	2.66
CO[C@H]1C[C@@H]2CC[C@@H](C)[C@@](O)(O2)C(=O)C(=O)N2CCCC[C@H]2C(=O)O[C@H]([C@H](C)C[C@@H]2CC[C@@H](OP(C)(C)=O)[C@H](OC)C2)CC(=O)[C@H](C)/C=C(\C)[C@@H](O)[C@@H](OC)C(=O)[C@H](C)C[C@H](C)/C=C/C=C/C=C/1C [Ridaforolimus] (top concentration tested 100 nM)	8.94	13.9	0	0
COc1cc(OC)c(/C=C/S(=O)(=O)Cc2ccc(OC)c(NCC(=O)O)c2)c(OC)c1 [Rigosertib] (top concentration tested 10000 nM)	21.8	21.9	6.71	18.7
C=CC(=O)Nc1cccc(Nc2nc(Nc3ccc(N4CCN(C(C)=O)CC4)cc3OC)ncc2C(F)(F)F)c1 [Rociletinib] (top concentration tested 10000 nM)	8.18	7.99	0.23	4.1
O=C(CCCCCCNC(=O)c1cnc(N(c2ccccc2)c2ccccc2)nc1)NO [Rocilinostat] (top concentration tested 10000 nM)	8	6.92	1.02	0.53
CS(=O)(=O)c1ccc(C2=C(c3ccccc3)C(=O)OC2)cc1 [Rofecoxib] (top concentration tested 10000 nM)	0	0	0	0
C/C=C1\NC(=O)[C@H]2CSSCC/C=C/[C@H](CC(=O)N[C@H](C(C)C)C(=O)N2)OC(=O)[C@H](C(C)C)NC1=O [Romidepsin] (top concentration tested 1000 nM)	32.4	29.5	23.6	29.9
CN(C)C[C@@H]1CCn2cc(c3ccccc32)C2=C(C(=O)NC2=O)c2cn(c3ccccc23)CCO1 [Ruboxistaurin] (top concentration tested 10000 nM)	9	8.97	6.6	6.85
CNCc1ccc(-c2[nH]c3cc(F)cc4c3c2CCNC4=O)cc1 [Rucaparib] (top concentration tested 10000 nM)	4.37	4.23	0	0.89
